According to article PMC4917206, “Chemical Modification of Influenza CD8+ T-Cell Epitopes Enhances Their Immunogenicity Regardless of Immunodominance” (PLoS ONE, 2016):

Columns and labels:
[1] = tested on: splenocytes of WT-vaccinated HLA-A2 tg mice; format: cell-based, mouse; set-up: key to response compared with WT peptide control, mouse splenocytes: *: Lower response than WT peptide
[2] = tested on: CD8+ T cells of HLA-A2+ human donors; format: cell-based
HLA-A*0201 = molecular target: T1, HLA-A*0201 (Homo sapiens, UniProt P04439, D140Y/D185E/D98H/E176V/E277Q/G131W/G231S/I119V/I121R/I166T/I218V/L300P/L318F/N151K/N90K/P208A/P217A/Q86G/Q94H/R138H/R169H/T345S); format: binding
T1 construct: Soluble MHC was dissolved in PBS containing 0.5 mg/ml bovine γ-globulin; made in house

HLA-A*0301 = molecular target: T2, HLA-A*0301 (Homo sapiens, UniProt P04439); format: binding
T2 construct: Soluble MHC was dissolved in PBS containing 0.5 mg/ml bovine γ-globulin; made in house

With FMYSDFHF[2-AOC] [F19] the “Mouse splenocytes (ex vivo assay), Average” value (shortened to “Mouse splenocytes … Average”) [1] was 62, the “DC model: IFN-γ-positive CD8+ T cells, Average” value (shortened to “DC model … Average”) [2] was 0.07 and the “rank by T cell activation, DC model” value [2] was “Lower 3”. The “FP binding score, percentage inhibition of tracer peptide binding, 4h” value (HLA-A*0201) was 87% and the “FP binding score, percentage inhibition of tracer peptide binding, 24h” value (from here on “FP binding score, percentage inhibition … 24h”) (HLA-A*0201) was 86%.
For FMYSDFHF[CHA] [F49], the “Mouse splenocytes … Average” value [1] was 60, the “rank by T cell activation, mouse splenocytes” value (from here on “rank … mouse splenocytes”) [1] was “Lower 3” and the “DC model … Average” value [2] was 0.18. For the same substance, the “rank by T cell activation, DC model” value [2] was “Upper 3”, the “FP binding score, percentage inhibition of tracer peptide binding, 4h” value (HLA-A*0201) was 88% and the “FP binding score, percentage inhibition … 24h” value (HLA-A*0201) was 86%.
FMYSDFHF[CSET] [F54] was tested, and the “Mouse splenocytes … Average” value [1] was 78, the “DC model … Average” value [2] was 0.14 and the “rank by T cell activation, DC model” value [2] was “Upper 3”. The “FP binding score, percentage inhibition of tracer peptide binding, 4h” value (HLA-A*0201) was 82% and the “FP binding score, percentage inhibition … 24h” value (HLA-A*0201) was 80%.
FMYSDFHF[CpALA] [F52] was tested, and the “Mouse splenocytes … Average” value [1] was 79, the “DC model … Average” value [2] was 0.13 and the “FP binding score, percentage inhibition of tracer peptide binding, 4h” value (HLA-A*0201) was 81%. For the same substance, the “FP binding score, percentage inhibition … 24h” value (HLA-A*0201) was 78%.
For FMYSDFHF[HPG] [F63], the “Mouse splenocytes … Average” value [1] was 83, the “DC model … Average” value [2] was 0.08 and the “FP binding score, percentage inhibition of tracer peptide binding, 4h” value (HLA-A*0201) was 81%. The “FP binding score, percentage inhibition … 24h” value (HLA-A*0201) was 78%.
For F[2-AOC]LSTVLGV [N177], the “Mouse splenocytes … Average” value [1] was 46, the “DC model … Average” value [2] was 0.04 and the “FP binding score, percentage inhibition of tracer peptide binding, 4h” value (HLA-A*0201) was 90%. For the same substance, the “FP binding score, percentage inhibition … 24h” value (HLA-A*0201) was 88%.
With F[2-AOC]YSDFHFI [F143] the “Mouse splenocytes … Average” value [1] was 92, the “rank … mouse splenocytes” value [1] was “Upper 3” and the “response compared with WT peptide control, mouse splenocytes” value [1] was “F143 ^*”. For the same substance, the “FP binding score, percentage inhibition of tracer peptide binding, 4h” value (HLA-A*0201) was 93% and the “FP binding score, percentage inhibition … 24h” value (HLA-A*0201) was 91%.
With F[2-AOC]YSDFHF[CHA] [F48] the “Mouse splenocytes … Average” value [1] was 61, the “DC model … Average” value [2] was 0.11 and the “FP binding score, percentage inhibition of tracer peptide binding, 4h” value (HLA-A*0201) was 93%. For the same substance, the “FP binding score, percentage inhibition … 24h” value (HLA-A*0201) was 92%.
F[2-AOC]YSDFHF[NLE] [F69] was tested, and the “Mouse splenocytes … Average” value [1] was 63, the “DC model … Average” value [2] was 0.08 and the “rank by T cell activation, DC model” value [2] was “Lower 3”. For the same substance, the “FP binding score, percentage inhibition of tracer peptide binding, 4h” value (HLA-A*0201) was 90% and the “FP binding score, percentage inhibition … 24h” value (HLA-A*0201) was 89%.
With GILGFV[BUTGLY]TL [G20] the “Mouse splenocytes … Average” value [1] was 36, the “DC model … Average” value [2] was 0.07 and the “rank by T cell activation, DC model” value [2] was “Lower 3”. For the same substance, the “FP binding score, percentage inhibition of tracer peptide binding, 4h” value (HLA-A*0201) was 82% and the “FP binding score, percentage inhibition … 24h” value (HLA-A*0201) was 79%.
With NMLSTVLG[CpALA] [N122] the “Mouse splenocytes … Average” value [1] was 128, the “FP binding score, percentage inhibition of tracer peptide binding, 4h” value (HLA-A*0201) was 65% and the “FP binding score, percentage inhibition … 24h” value (HLA-A*0201) was 60%.
In the case of NM[2-AOC]STVLGV [N41], the “Mouse splenocytes … Average” value [1] is reported as 5, the “DC model … Average” value [2] is reported as 0.08 and the “rank by T cell activation, DC model” value [2] is reported as “Upper 3”. For the same substance, the “FP binding score, percentage inhibition of tracer peptide binding, 4h” value (HLA-A*0201) was 78% and the “FP binding score, percentage inhibition … 24h” value (HLA-A*0201) was 73%.
For N[2-AOC]LSTVLGV [N40], the “Mouse splenocytes … Average” value [1] was 375, the “rank … mouse splenocytes” value [1] was “Upper 3” and the “response compared with WT peptide control, mouse splenocytes” value [1] was “N40 ^*”. For the same substance, the “DC model … Average” value [2] was 0.06, the “FP binding score, percentage inhibition of tracer peptide binding, 4h” value (HLA-A*0201) was 71% and the “FP binding score, percentage inhibition … 24h” value (HLA-A*0201) was 67%.
With S[NVA]RFGGFTK [S53] the “FP binding score, percentage inhibition of tracer peptide binding, 4h” value (HLA-A*0301) was 80% and the “FP binding score, percentage inhibition … 24h” value (HLA-A*0301) was 93%.
In the case of S[NVA]SFGGFHK [S56], the “FP binding score, percentage inhibition of tracer peptide binding, 4h” value (HLA-A*0301) is reported as 78% and the “FP binding score, percentage inhibition … 24h” value (HLA-A*0301) is reported as 91%.
In the case of S[NVA]SFGGF[AHA]K [S90], the “FP binding score, percentage inhibition of tracer peptide binding, 4h” value (HLA-A*0301) is reported as 78% and the “FP binding score, percentage inhibition … 24h” value (HLA-A*0301) is reported as 90%.
For S[NVA]SFGGF[TOME]K [S92], the “FP binding score, percentage inhibition of tracer peptide binding, 4h” value (HLA-A*0301) was 80% and the “FP binding score, percentage inhibition … 24h” value (HLA-A*0301) was 92%.
With S[NVA]SFGG[2-AOC]TK [S70] the “FP binding score, percentage inhibition of tracer peptide binding, 4h” value (HLA-A*0301) was 90% and the “FP binding score, percentage inhibition … 24h” value (HLA-A*0301) was 96%.
S[NVA]SFGG[2-FUR]TK [S76] was tested, and the “FP binding score, percentage inhibition of tracer peptide binding, 4h” value (HLA-A*0301) was 75% and the “FP binding score, percentage inhibition … 24h” value (HLA-A*0301) was 91%.
With S[NVA]SFGG[4-FPHE]TK [S72] the “FP binding score, percentage inhibition of tracer peptide binding, 4h” value (HLA-A*0301) was 79% and the “FP binding score, percentage inhibition … 24h” value (HLA-A*0301) was 93%.
In the case of S[NVA]SFGG[BPG]TK [S73], the “FP binding score, percentage inhibition of tracer peptide binding, 4h” value (HLA-A*0301) is reported as 73% and the “FP binding score, percentage inhibition … 24h” value (HLA-A*0301) is reported as 91%.
With S[NVA]SFGG[CpALA]TK [S74] the “FP binding score, percentage inhibition of tracer peptide binding, 4h” value (HLA-A*0301) was 78% and the “FP binding score, percentage inhibition … 24h” value (HLA-A*0301) was 94%.
S[NVA]SFGG[NLE]TK [S68] was tested, and the “FP binding score, percentage inhibition of tracer peptide binding, 4h” value (HLA-A*0301) was 79% and the “FP binding score, percentage inhibition … 24h” value (HLA-A*0301) was 93%.
S[NVA]SFGG[NVA]TK [S69] was tested, and the “FP binding score, percentage inhibition of tracer peptide binding, 4h” value (HLA-A*0301) was 72% and the “FP binding score, percentage inhibition … 24h” value (HLA-A*0301) was 91%.
In the case of S[NVA]SFGG[PRG]TK [S71], the “FP binding score, percentage inhibition of tracer peptide binding, 4h” value (HLA-A*0301) is reported as 70% and the “FP binding score, percentage inhibition … 24h” value (HLA-A*0301) is reported as 90%.
S[NVA][2-AOC]FGGFTK [S50] was tested, and the “FP binding score, percentage inhibition of tracer peptide binding, 4h” value (HLA-A*0301) was 83% and the “FP binding score, percentage inhibition … 24h” value (HLA-A*0301) was 94%.
For S[NVA][4-FPHE]FGGFTK [S95], the “FP binding score, percentage inhibition of tracer peptide binding, 4h” value (HLA-A*0301) was 80% and the “FP binding score, percentage inhibition … 24h” value (HLA-A*0301) was 93%.
For S[NVA][AHA]FGGFTK [S52], the “FP binding score, percentage inhibition of tracer peptide binding, 4h” value (HLA-A*0301) was 80% and the “FP binding score, percentage inhibition … 24h” value (HLA-A*0301) was 93%.
For S[NVA][CSME]FGGFTK [S93], the “FP binding score, percentage inhibition of tracer peptide binding, 4h” value (HLA-A*0301) was 80% and the “FP binding score, percentage inhibition … 24h” value (HLA-A*0301) was 93%.
In the case of S[NVA][CpALA]FGGFTK [S96], the “FP binding score, percentage inhibition of tracer peptide binding, 4h” value (HLA-A*0301) is reported as 76% and the “FP binding score, percentage inhibition … 24h” value (HLA-A*0301) is reported as 91%.
With S[NVA][NLE]FGGFTK [S94] the “FP binding score, percentage inhibition of tracer peptide binding, 4h” value (HLA-A*0301) was 80% and the “FP binding score, percentage inhibition … 24h” value (HLA-A*0301) was 93%.
For [2-AOC]MLSTVLGV [N39], the “Mouse splenocytes … Average” value [1] was 334, the “DC model … Average” value [2] was 0.05 and the “FP binding score, percentage inhibition of tracer peptide binding, 4h” value (HLA-A*0201) was 68%. The “FP binding score, percentage inhibition … 24h” value (HLA-A*0201) was 63%.
With [2-AOC]MYSDFHFI [F95] the “Mouse splenocytes … Average” value [1] was 90, the “DC model … Average” value [2] was 0.12 and the “FP binding score, percentage inhibition of tracer peptide binding, 4h” value (HLA-A*0201) was 82%. The “FP binding score, percentage inhibition … 24h” value (HLA-A*0201) was 80%.
In the case of [2-AOC][AHA]RGSVAHK [I17], the “FP binding score, percentage inhibition of tracer peptide binding, 4h” value (HLA-A*0301) is reported as 61% and the “FP binding score, percentage inhibition … 24h” value (HLA-A*0301) is reported as 89%.
With [2-AOC][NLE]RGSVAHK [I60] the “FP binding score, percentage inhibition of tracer peptide binding, 4h” value (HLA-A*0301) was 72% and the “FP binding score, percentage inhibition … 24h” value (HLA-A*0301) was 91%.
With [AHA][NLE]RGSVAHK [I53] the “FP binding score, percentage inhibition of tracer peptide binding, 4h” value (HLA-A*0301) was 73% and the “FP binding score, percentage inhibition … 24h” value (HLA-A*0301) was 91%.
In the case of [BCA][2-AOC]YSDFHFI [F112], the “Mouse splenocytes … Average” value [1] is reported as 86, the “FP binding score, percentage inhibition of tracer peptide binding, 4h” value (HLA-A*0201) is reported as 92% and the “FP binding score, percentage inhibition … 24h” value (HLA-A*0201) is reported as 91%.
For [CSET][2-AOC]YSDFHFI [F118], the “Mouse splenocytes … Average” value [1] was 81, the “FP binding score, percentage inhibition of tracer peptide binding, 4h” value (HLA-A*0201) was 95% and the “FP binding score, percentage inhibition … 24h” value (HLA-A*0201) was 93%.
For [CSME][AHA]RGSVAHK [I61], the “FP binding score, percentage inhibition of tracer peptide binding, 4h” value (HLA-A*0301) was 71% and the “FP binding score, percentage inhibition … 24h” value (HLA-A*0301) was 90%.
[OM-HS][2-AOC]LSTVLGV [N91] was tested, and the “Mouse splenocytes … Average” value [1] was 344, the “FP binding score, percentage inhibition of tracer peptide binding, 4h” value (HLA-A*0201) was 91% and the “FP binding score, percentage inhibition … 24h” value (HLA-A*0201) was 87%.
[SOME]MLSTVLGV [N61] was tested, and the “Mouse splenocytes … Average” value [1] was 348, the “FP binding score, percentage inhibition of tracer peptide binding, 4h” value (HLA-A*0201) was 62% and the “FP binding score, percentage inhibition … 24h” value (HLA-A*0201) was 54%.
In the case of [THR-BZL][2-AOC]YSDFHFI [F141], the “Mouse splenocytes … Average” value [1] is reported as 67, the “FP binding score, percentage inhibition of tracer peptide binding, 4h” value (HLA-A*0201) is reported as 94% and the “FP binding score, percentage inhibition … 24h” value (HLA-A*0201) is reported as 93%.
